Laboratory results reported in patent US20250135012A1, “DENDRIMER CONJUGATES OF SMALL MOLECULE BIOLOGICS FOR INTRACELLULAR DELIVERY” (The Johns Hopkins University, priority 2021, published 2025).
Where “and” joins values, the source holds several entries; their conditions need not be identical. Equal entries are not always repeated. Non-standard residues stand in square brackets, D forms with d. Residues, ends and D or L forms follow the SMILES beside them. Cya = N[C@@H](CS(=O)(=O)O)C(=O)O

Assays:
[1] = system: choroidal neovascularization (CNV); assay: Laser CNV model, CNV area; format: in vivo, Brown Norway rats
Description: Animals were anesthetized through intraperitoneal injections of a ketamine/xylazine cocktail (ketamine 50 mg/kg and xylazine 10 mg/kg). Pupils are dilated with topical 2.5% Phenylephrine Hydrochloride solution followed by 0.5% Tetracaine Hydrochloride solution. To induce CNV formation, four equally spaced lesions will be created in the Bruch's membrane with a built-in laser system on the Micron III SLO. Laser power was set to […] with duration of 70 ms. Gonio ophthalmic solution was applied post-operatively to prevent eyes from drying and forming cataracts.
On the day of CNV induction (Day 0), D-ALG1001 and ALG1001 was administered intraperitoneally at a dose of 150 μg on a peptide basis. […]
After fixation, the posterior segment of the eye was dissected out and the retina separated from the choroid. […] Samples for CNV quantification were imaged with an Axiovert phase contrast microscope. […]
A Micron III SLO scope and laser attachment was used to induce CNV formation in mice. […] Whether dendrimer conjugation impeded the peptide from attenuating CNV was assessed by first injecting ALG-1001 and D-ALG intravitreally after CNV induction. The eyes were then collected on day 7 and CNV area quantified.
The protection and targeting of D-ALG allowed for less invasive administration routes. […] Choroidal flatmount of eyes at day 7 and 14 were imaged and the CNV area was calculated using ImageJ.

proteinase K = proteinase K (Parengyodontium album, UniProt P06873); assay: in vitro; settings: proteinase K (isolated protease)
Chain of proteinase K (P06873 106-384): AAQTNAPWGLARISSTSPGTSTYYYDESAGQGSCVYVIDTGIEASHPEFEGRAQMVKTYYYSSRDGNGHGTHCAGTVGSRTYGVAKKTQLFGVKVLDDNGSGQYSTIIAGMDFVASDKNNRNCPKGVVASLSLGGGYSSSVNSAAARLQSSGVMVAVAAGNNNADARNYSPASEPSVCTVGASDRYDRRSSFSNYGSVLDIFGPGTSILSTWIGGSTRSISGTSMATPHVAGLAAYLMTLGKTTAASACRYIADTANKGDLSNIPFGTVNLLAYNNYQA
Description: Proteinase K stock solution was purchased from ThermoFisher and used as is. […] The mixture was incubated at 37° C. and at set time points, 100 μL of the mixture was removed and analyzed through HPLC.

IL1β = IL1β expression in LPS stimulated RAW264.7 cells (qPCR); format: cell-based, murine; settings: 24 h pretreatment, LPS 3 h
Description: RAW264.7 cells were seeded at a density of 1×10^5 cells per well in 12-well plates 48 h before treatment. Cells were incubated with D-ALG1001 and ALG-1001 for 24 h, the treatment media was aspirated then LPS at a concentration of 10,000 Endotoxin Units/mL was added to stimulate inflammatory response. Samples were collected 3 h after LPS stimulation for qPCR analysis.
100 μL of chloroform was added to the Trizol suspension and the aqueous phase was separated with a centrifuge at 10K RPM at 4° C. for 15 minutes. 400 μL of 2-propanol was added to the aqueous solution and spun again to pellet the RNA. The RNA was washed with 70% ethanol solution, pelleted again, and re-suspended in DEPC (ultrapure treated to inactivated enzymes) water.
To convert RNA to complementary DNA, 2 μg of RNA was converted using a High-Capacity cDNA Reverse Transcription Kit (Applied Biosystems, Foster City, CA). Samples were analyzed using STEPONE PLUS® real-time PCR system (Applied Biosystems) with SYBR Green reagent (ThermoFisher Scientific). Relative expression was quantified with ΔΔCt calculations normalized to controls. Primers for GAPDH was obtained from Bio-Rad Laboratories (Hercules, CA). Primers were purchased from Integrated DNA Technologies (Coralville, IA). Primers for TNFα were: […]

FAK = assay: Western blot, FAK and phospho-FAK in VEGF stimulated HUVEC; format: cell-based, human
Description: Cells were treated with D-ALG1001 and ALG-1001 for 24 h before activation with VEGF for 5 minutes. […] Cells were lysed with TRIZOL® and processed as previously described for qPCR analysis.
Concentration of protein was determined with the BCA protein assay kit (Thermo Scientific, Rockford, IL). Equal amount of protein was denatured and resolved on 4-15% TGX gels (Bio-Rad, Hercules, CA). Gels were transferred to nitrocellulose membranes, blocked with 3% Bovine Serum Albumin (“BSA”) at RT for 1 h, and probed for GAPDH, FAK, pFAK, MAPK, and pMAPK at 4° C. overnight. Membranes were washed thrice before incubation with HRP-conjugated secondary antibodies followed by incubation with chemiluminescent substrate for visualization.
To elucidate the mechanism through which D-ALG and ALG-1001 influence angiogenic function, cells were pre-treated with D-ALG and ALG-1001 for 24 h. The cells were then stimulated with a high dose of exogenous VEGF for 5 min after which the samples were collected for western blotting. The samples were probed for expression of total FAK, phospho-FAK (Y397), ERK1/2, phospho-ERK1/2, and Cyclophilin B (CycB) with CycB acting as the internal control.

p44/42 ERK = assay: Choroid total ERK and phospho-p44/42 ERK ELISA; format: in vivo, Brown Norway rats
Description: In brief, 500 μL of T-Per supplemented with PHOSSTOP® and proteinase inhibitor cocktail was added to tubes containing dissected choroid. A scoop of 1.6 mm steel homogenization beads was added to each sample and then placed in […]® LT (Qiagen) at an oscillation frequency of 50/s for 15 minutes. For qPCR, 200 μL of TRIZOL® was added to tubes containing choroid and a scoop of 1.6 mm steel homogenization beads was added. The samples were placed in […]® LT at an oscillation frequency of 50/s for 15 minutes.
To evaluate activation of FAK and ERK pathways, eyes were enucleated at set time points and the choroidal tissue dissected out. Tissues were submerged in a mixture of T-per, proteinase inhibitor, and PhosStop with stainless steel homogenization beads and homogenized to produce protein extracts. Total FAK, total ERK, p-FAK (Y397), and p-44/42 ERK ELISA kits were used to quantify the amount of total and phosphorylated proteins in FAK and ERK pathways. […] However, the level of total FAK protein in ALG-1001 treated animals was elevated at day 14.

C[C@@H](O)[C@H](NC(=O)[C@H](CS(=O)(=O)O)NC(=O)CNC(=O)[C@H](CCCNC(=N)N)NC(=O)CN)C(=O)N1CCC[C@H]1C(=O)O [ALG-1001] (H-GRG[Cya]TP-OH; N-terminus and C-terminus assumed)
reduction of CNV formation ([1]; day 7, intraperitoneal 150 μg peptide basis every 4 days): ~60% and 40% | formation of CNV ([1]; intravitreal, day 7): significantly inhibited | metabolised at 0.5 h, 2 mg/mL (proteinase K): ~50% | metabolised at […], 2 mg/mL (proteinase K): ~90% | impact on IL1β production (IL1β): no impact on IL1β production | reduction of phospho-FAK (FAK; 1 mM on a peptide basis, vs VEGF stimulated controls): 20% | total FAK and phospho-FAK expression (FAK; vs untreated VEGF stimulated controls): lower levels of total FAK and phosphor-FAK | total ERK (p44/42 ERK; day 7): remained relatively constant | total ERK (p44/42 ERK; day 14, vs untreated animals): slight reduction | phospho-p44/42 ERK (p44/42 ERK; rat, in vivo): decrease of p44/42 ERK production
